Assay results taken from patent US5759991A, “Neurotrophic peptide derivatives” (Sumitomo Pharmaceutical Company, Limited., priority 1991, dated 1998).

Experiments:
[1] = system: tissue of medial septum nuclei; test: acetylcholine synthesis activity of cultured medial septum nucleus tissue (method of Ojika et al.); format: cell-based; settings: human-derived HCNP peptide compared with rat-derived HCNP
Source text: The neurotrophic activity (also called neurotrophic factor activity) refers to, for example, an action of regulating differentiation and maturation of neuronal cells, namely, an action of accelerating the acetylcholine synthesis in the tissue of medial septum nuclei which is rich in cholinergic neurons.
The human-derived neurotrophic peptide or its derivatives of the present invention can regulate differentiation and maturation of neuronal cells. That is, the neurotrophic peptide and derivatives thereof accelerate the acetylcholine synthesis in the tissue of medial septum nuclei. The biological activity can be determined by the method of Ojika, K., et a. (Reference 66).
Medial septal nucleus was extracted from the brains of 16-day-old SD rat embryos and microscopically dissected into small pieces. […]
Except in the experiment for the study of sequential growth, the cultured tissue on the 9th day was washed with a Tris-HCl (pH 7.4) buffered Tyrode's solution, followed by preincubation in a high-K (55 mM KCl) Tyrode's solution, and then incubation in a Tyrode's solution containing ^3 H-choline chloride at 37° C. for 30 minutes. […] The choline uptake and Ach-productivity were expressed as amounts per one piece of cultured tissue. Choline acetyl-transferase (CATase) was measured using ^14 C-acetyl-CoA, according to the method of Fonnum, biochemical Journal, 115, 465-472 (1969). […]

[2] = system: tissue of medial septum nuclei; settings: rat medial septum nuclei acetylcholinergic neuron; Reference 1; cited from earlier work

Substance | neurotrophic activity (acceleration of acetylcholine synthesis) [1] | production of acetylcholine [2]
H-PVDLSKWSGPL-OH [hHCNP, H-Pro-Val-Asp-Leu-Ser-Lys-Trp-Ser-Gly-Pro-Leu-OH] | neurotrophic activity similar to rat-derived HCNP was noted | –
HCNP: hippocampal cholinergic neurotrophic peptide composed of 11 amino acid residues isolated from hippocampal tissue of neonatal rat (AADISQWAGPL) | – | enhances production of acetylcholine
